Measurements published in patent US12595248B2, “PRMT5 inhibitors” (Merck Sharp & Dohme LLC, priority 2019, dated 2026).
Read-outs that look alike come from different tables or passages of the source.

Key:
[1] = biological target: T1, PRMT5-MEP50 enzyme complex (Homo sapiens, UniProt O14744); assay: PRMT5-MEP50 Enzyme Methylation Assay (Version B); assay type: biochemical
T1 construct: Full-length (FL)-PRMT5-MEP50 enzyme complex (recombinant proteins from baculovirus-transfected Sf21 cells: FL-PRMT5; MW=73837 kDa and FL-MEP50; MW=38614); made in house; host or cells: baculovirus-transfected Sf21 cells
Procedure: PRMT5-MEP50 Enzyme Methylation Assay (Version B)
PRMT5-MEP50 biochemical assay is a direct measurement of the methylation activity of the enzyme complex on a short peptide substrate derived from the N-terminus of H4 histone. Methylation experiment was performed with recombinant PRMT5-MEP50 protein complex. The assessment of inhibitory effect (EC50) of small molecules was measured by the effectiveness of the compounds to inhibit this reaction.
In this assay, the potency (EC50) of each compound was determined from a twenty-point (1:2 serial dilution; top compound concentration of 100000 nM) titration curve using the following outlined procedure. To each well of a white ProxiPlus 384 well-plate, 100 nL of compound (1% DMSO in final assay volume of 10 μL) was dispensed, followed by the addition of 8 μL of 1× assay buffer (50 mM Bicine pH 8.0, 1 mM DTT, 0.004% Tween20, 0.01% BSA) containing 0.625 nM of Full-length (FL)-PRMT5-MEP50 enzyme complex (recombinant proteins from baculovirus-transfected Sf21 cells: FL-PRMT5; MW=[…] and FL-MEP50; MW=38614). Plates were sealed and placed in a 37° C. humidified chamber for 30 minutes pre-incubation with compounds. Subsequently, each reaction was initiated by the addition of 2 μL 1× assay buffer containing 375 nM biotinylated H4R3 (MeI) peptide, and 75 μM S-(5′-Adenosyl)-L-Methionine Chloride (SAM). The final reaction in each well of 10 μL consists of 0.5 nM PRMT5-MEP50, 75 nM biotinylated-peptide, and 15 μM SAM. Methylation reactions were allowed to proceed for 150 minutes in a sealed plate at 37° C. Reactions were immediately quenched by the addition of 1 μL of 10% formic acid. Plates were then frozen and shipped to SAMDI™ Tech Inc. to determine the percent conversion from […]. Dose-response curves were generated by plotting percent effect (% product conversion; Y-axis) vs. Log 10 compound concentrations (X-axis). EC50 values were determined by non-linear regression according to models for either sigmoidal (4 parameters) or biphasic (7 parameters) dose-response curves.

[2] = biological target: T2, PRMT5 (Homo sapiens, UniProt O14744); assay: PRMT5 Cell Target Engagement (TE) Assay; assay type: cell-based; conditions: MCF-7 cells, treated for 3 days, symmetric dimethylation of arginine (SDMA) by high content imaging
T2 construct: seeded with 4000 MCF-7 cells in 30 μl media; endogenous in cells; host or cells: MCF-7 cells
Source text: PRMT5 Cell Target Engagement (TE) Assay
The PRMT5 TE assay is a biomarker assay for identifying compounds that inhibit symmetric dimethylation of arginine (SDMA) of PRMT5 substrates. The following substrates have been reported for PRMT5: histone H2A and H4 R3, Histone H3 R2, Histone H3 R8, spliceosome Sm proteins, ribosomal protein RPS10, p53, FEN1, nucleoplasmin, nucleolin, EGFR and EBNA. The assay focuses on detecting symmetrically dimethylated nuclear proteins using high content imaging technology. Detection of the expression of symmetrically dimethylated nuclear proteins is through a mixture of primary rabbit monoclonal antibodies to SDMA (CST 13222), which in turn recognized by an Alexafluor 488 dye-conjugated anti-rabbit IgG secondary antibody. The IN Cell Analyzer 2200 or Opera-Phenix measures nuclear Alexafluor 488 fluorescent dye intensity that is directly related to the level of expression of symmetrically dimethylated nuclear proteins at the single cell level. Nuclear AF488 dye intensities are compared to the mean value for DMSO treated cells (MIN) to report percent of inhibition for each compound-treated well.
In this assay, the cell potency (EC50) of each compound was determined from a ten point (1:3 serial dilution; top compound concentration of 10000 nM) titration curve using the following outlined procedure. Each well of a BD falcon collagen coated black/clear bottom 384-well plate was seeded with 4000 MCF-7 cells in 30 μl media and allowed to attach for 5 h. Media is ATCC-formulated Eagle's Minimum Essential Medium, Catalog No. 30-2003. To make the complete growth medium, the following components were added to the base medium: 0.01 mg/mL human recombinant insulin; fetal bovine serum to a final concentration of 10%. Additional 30 μl of media containing 2× compounds were added to each well. Cells were treated for 3 days in 37° C. CO2 incubator. On day 3, cells were fixed with Cytofix, permeabilized with 0.4% Triton-X-100/Cytofix, and washed with D-PBS without Ca/Mg. Cells were blocked with Licor Odessey blocking reagent for 1 h at room temperature, followed by incubation with anti-SDMA (1:1000) antibody at 4° C. overnight. 1° antibody was removed, followed by three washings with DPBS without Ca/Mg and 0.05% Tween20. Hoechst (5 μg/mL), Cell Mask deep stain (1:2000) and Alexa488-conjugated goat anti-rabbit IgG (2 μg/mL) was added for 1 h at room temperature. A final washing step (three washes) was performed before sealing plate for imaging on In Cell Analyzer 2200 or Opera-Phenix. Images from analyzer were uploaded to Columbus (at WP or BOS) for image analysis. IC50 values were determined by 4 parameters robust fit of percent fluorescence units vs. (Log10) compound concentrations.

[3] = first of two EC50s: 7 parameters biphasic model, read-out: Enzyme Methylation Assay Version B (EC50_1)
[4] = second of two EC50s: 7 parameters biphasic model, read-out: Enzyme Methylation Assay Version B (EC50_2)
[5] = only one EC50 shown: 4 parameters single site sigmoidal model, 30 min pre-incubation, read-out: Enzyme Methylation Assay Version B (EC50)

T2 sequence (O14744 whole entry): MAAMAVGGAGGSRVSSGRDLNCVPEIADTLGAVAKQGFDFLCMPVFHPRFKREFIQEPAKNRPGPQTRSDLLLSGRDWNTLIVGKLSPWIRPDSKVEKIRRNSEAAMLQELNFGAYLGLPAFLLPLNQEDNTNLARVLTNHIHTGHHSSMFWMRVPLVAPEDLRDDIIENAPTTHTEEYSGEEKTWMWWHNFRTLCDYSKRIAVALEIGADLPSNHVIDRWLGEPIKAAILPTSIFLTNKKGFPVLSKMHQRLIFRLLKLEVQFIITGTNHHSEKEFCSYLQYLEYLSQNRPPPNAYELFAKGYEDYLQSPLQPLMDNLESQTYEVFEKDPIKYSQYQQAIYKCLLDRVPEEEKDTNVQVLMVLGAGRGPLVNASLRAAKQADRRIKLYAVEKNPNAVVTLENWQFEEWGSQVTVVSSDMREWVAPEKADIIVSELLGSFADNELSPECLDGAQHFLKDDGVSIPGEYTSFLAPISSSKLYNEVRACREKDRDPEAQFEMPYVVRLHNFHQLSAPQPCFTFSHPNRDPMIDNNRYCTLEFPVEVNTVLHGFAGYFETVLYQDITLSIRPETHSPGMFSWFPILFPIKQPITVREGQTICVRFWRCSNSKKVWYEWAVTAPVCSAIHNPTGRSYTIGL
T2 sequence (Q9BQA1 whole entry partner): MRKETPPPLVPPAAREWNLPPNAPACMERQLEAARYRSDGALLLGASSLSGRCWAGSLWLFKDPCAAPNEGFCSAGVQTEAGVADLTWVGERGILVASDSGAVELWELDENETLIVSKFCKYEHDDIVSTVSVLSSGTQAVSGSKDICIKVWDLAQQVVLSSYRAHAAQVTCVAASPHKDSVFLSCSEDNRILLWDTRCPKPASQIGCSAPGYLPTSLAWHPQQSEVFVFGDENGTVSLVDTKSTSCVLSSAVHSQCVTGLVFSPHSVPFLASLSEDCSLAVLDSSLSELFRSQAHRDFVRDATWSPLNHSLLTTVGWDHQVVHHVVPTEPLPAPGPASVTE
T1 sequence (O14744 whole entry): as the sequence (O14744 whole entry) above
T1 sequence (Q9BQA1 whole entry partner): as the sequence (Q9BQA1 whole entry partner) above

SMILES	EC50 [1, 3] [nM]	EC50 [1, 4] [nM]	EC50 [2] [nM]	EC50 [1, 5] [nM]
O=C(c1cc2n(n1)CCN(CC(F)(F)F)C2)N1CC[C@H](N2CCc3ccccc3C2)[C@@H](O)C1 [Example 50, ((3S,4S)-4-(3,4-dihydroisoquinolin-2(1H)-yl)-3-hydroxypiperidin-1-yl)(5-(2,2,2-trifluoroethyl)-4,5,6,7-tetrahydropyrazolo[1,5-a]pyrazin-2-yl)methanone]	~76	33500	4260	
CC1OC(=O)Nc2cc(C(=O)N3CC[C@@H](N4CCc5ccccc5C4)[C@H](O)C3)ccc21 (single isomer, unassigned) [Example 92]	4.4	2460	32	
O=C(c1cn2c(n1)CCC(C(F)(F)F)C2)N1CC[C@H](N2CCc3ccccc3C2)[C@@H](O)C1 (single isomer, unassigned) [Example 83]	12	9550	365	
CC(=O)N1CCC(Nc2nccc(C(=O)N3CC[C@@H](N4CCc5ccccc5C4)[C@H](O)C3)c2F)C(F)(F)C1 (single isomer, unassigned) [Example 17]	~191	> 100000	8420	
CC(=O)N1CCC(Nc2cc(C(=O)N3CCC(N4CCc5ccccc5C4)C(O)C3C)ccn2)CC1 (single isomer, unassigned) [Example 20, l-(4-((4-(4-(3,4-dihydroisoquinolin-2(1H)-yl)-3-hydroxy-2-methylpiperidine-1-carbonyl)pyridin-2-yl)amino)piperidin-1-yl)ethan-1-one]	4.4	1500	12	
CC(=O)N1CCC(Nc2cc(C(=O)N3CCC(N4Cc5ccccc5C(F)(F)C4)C(O)C3)c(F)cn2)CC1 (single isomer, unassigned) [Example 24, 1-(4-((4-(-4-(4,4-difluoro-3,4-dihydroisoquinolin-2(1H)-yl)-3-hydroxypiperidine-1-carbonyl)-5-fluoropyridin-2-yl)amino)piperidin-1-yl)ethan-1-one]			> 10000	5560
Cc1ccc2c(c1)CN(C1CCN(C(=O)c3ccc(OCC(F)(F)F)nc3)CC1O)CC2 (single isomer, unassigned) [Example 48, ((3S,4S or 3R,4R)-3-hydroxy-4-(7-methyl-3,4-dihydroisoquinolin-2(1H)-yl)piperidin-1-yl)(6-(2,2,2-trifluoroethoxy)pyridin-3-yl)methanone]			> 10000	17800
CC(=O)N1CCC(Nc2nccc(C(=O)N3CC[C@H](N4CCc5ccccc5C4)[C@@H](O)C3)c2F)C(F)(F)C1 (single isomer, unassigned) [Example 14]	~20	17200	275	
CC(=O)N1CCC(Nc2nccc(C(=O)N3CC[C@H](N4CCc5ccccc5C4)[C@@H](O)C3)c2F)C(F)(F)C1 (single isomer, unassigned) [Example 15]	6.8	3720	57	
CCC1Oc2ccc(C(=O)N3CC[C@@H](N4CCc5ccccc5C4)[C@H](O)C3)cc2NC1=O (single isomer, unassigned) [Example 12]	106	45700	6070	
CC(=O)N1CCC(Nc2nccc(C(=O)N3CC[C@@H](N4CCc5ccccc5C4)[C@H](O)C3)c2F)C(F)(F)C1 (single isomer, unassigned) [Example 16]	160	83200	5730	
CC(=O)N1CCC(Nc2cc(C(=O)N3CCC(N4Cc5ccccc5C(F)(F)C4)C(O)C3)c(Cl)cn2)CC1 (single isomer, unassigned) [Example 28, l-(4-((5-chloro-4-(-4-(4,4-difluoro-3,4-dihydroisoquinolin-2(lH)-yl)-3-hydroxypiperidine-1 - carbonyl)pyridin-2-yl)amino)piperidin-1-yl)ethan-1-one]	1270	45200	1660	
O=C(c1ccc(C(=O)N2C3CCC2COC3)cc1)N1CC[C@@H](N2CCc3c(F)cccc3C2)[C@H](O)C1 [Example 38, (4-(3-oxa-8-azabicyclo[3.2.1]octane-8-carbonyl)phenyl)((3R,4R)-4-(5-fluoro-3,4-dihydroisoquinolin-2(1H)-yl)-3-hydroxypiperidin-1-yl)methanone]	~402	> 100000	> 10000	
CC(=O)N1CCC(Nc2cc(C(=O)N3C[C@H]4C[C@@H]3C(O)C4N3CCc4ccccc4C3)c(F)cn2)CC1 (single isomer, unassigned) [Example 30]			> 10000	4830
O=C(c1ccc(OCC(F)(F)F)nc1)N1CCC(N2Cc3ccccc3C(F)(F)C2)C(O)C1 (single isomer, unassigned) [Example 29, (-4-(4,4-difluoro-3,4-dihydroisoquinolin-2(1H)-yl)-3-hydroxypiperidin-1-yl)(6-(2,2,2-trifluoroethoxy)pyridin-3-yl)methanone]			> 10000	1340
CC1(C)CC(=O)Nc2cc(C(=O)N3CC[C@@H](N4CCc5ccccc5C4)[C@H](O)C3)ccc21 [Example 95, 7-((3R,4R)-4-(3,4-dihydroisoquinolin-2(1H)-yl)-3-hydroxypiperidine-1-carbonyl)-4,4-dimethyl-3,4-dihydroquinolin-2(1H)-one]	~62	39400	2710	
CC(C)(C#N)c1ccc(C(=O)N2CC[C@H](N3CCc4ccccc4C3)[C@@H](O)C2)cn1 (single isomer, unassigned) [Example 89]	~110	> 100000	3950	
CC1OC(=O)Nc2cc(C(=O)N3CC[C@H](N4CCc5ccccc5C4)[C@@H](O)C3)ccc21 (single isomer, unassigned) [Example 94]	~291	> 100000	4560	
CC(=O)N1CCC(Nc2cc(C(=O)N3CCC(N4CCc5ccccc5C4)C(O)C3C)ccn2)CC1 (single isomer, unassigned) [Example 21, 1-(4-((4-(4-(3,4-dihydroisoquinolin-2(1H)-yl)-3-hydroxy-2-methylpiperidine-1-carbonyl)pyridin-2-yl)amino)piperidin-1-yl)ethan-1-one]	~56	25400	1580	
